PMC6030077, “Dual role of HDAC10 in lysosomal exocytosis and DNA repair promotes neuroblastoma chemoresistance” (Scientific Reports, 2018)

Tests used:
Assay type in all cases: cell-based, human
[1] = system: BE(2)-C cells; assay: Flow cytometric analysis of γH2A.X staining (DNA double-strand breaks); details: 24 h, tubastatin A 7.5 µM, vacuolin-1 10 µM
Method: Cells were dissociated from dishes using non-enzymatic cell dissociation reagent for five minutes. Cells were counted using a ViCell XR automatic cell counter (Beckmann Coulter) and 2.5 ∗ 10^5 cells were transferred into a pre-cooled 96-well round bottom plate (TPP92097). […] Cells were washed three times in FACS buffer (5% FBS in PBS) after each antibody incubation step. For evaluation of DNA double-strand breaks, cells were detached from dishes using trypsin, counted using a ViCell XR automatic cell counter (Beckmann Coulter) and transferred into a pre-cooled 96-well round bottom plate (4 ∗ 10^6 cells/well). Cells were fixed and permeabilized using the eBioscience^TM Foxp3/Transcription Factor Staining Buffer Set (Thermo Fisher Scientific). […] Cells were washed three times in 1× permeabilization buffer after each antibody incubation step and fluorescence was quantified on a BD FACSCanto II platform.

[2] = system: BE(2)-C cells; assay: Flow cytometric analysis of LysoTracker DND-99 staining (lysosomal accumulation); details: 24 h
Method: Six days after siRNA transfection or 24 h after treatment with HDAC or lysosomal inhibitors, cells were stained for 1 h with 50 nM LysoTracker® Red DND-99 in medium under standard cell culture conditions. Cells were washed with ice-cold RPMI w/o phenol-red and detached using Trypsin/EDTA for 3 minutes at 37 °C. Cells were centrifuged, resuspended in RPMI w/o phenol red and LysoTracker® Red fluorescence was quantified on a BD FACSCanto II platform using the PE filter setting.

[3] = system: BE(2)-C cells; assay: Flow cytometric analysis of cell surface LAMP-1 (lysosomal exocytosis); details: 6 h tubastatin A 7.5 µM, bufexamac 30 µM, tubacin 7.5 µM, vacuolin-1 10 µM 1 h
Method: Cells were dissociated from dishes using non-enzymatic cell dissociation reagent for five minutes. Cells were counted using a ViCell XR automatic cell counter (Beckmann Coulter) and 2.5 ∗ 10^5 cells were transferred into a pre-cooled 96-well round bottom plate (TPP92097). Cells were stained for 1.5–2 hours on ice with primary anti P-gp (Biozol ABA-AB00143-1.1), LAMP-1 (H4A3, DHSB) antibody or isotype control (DLN-05794, Dianova, […]) and for 1 hour with APC-labeled secondary antibody (Dianova 115-136-068). Cells were washed three times in FACS buffer (5% FBS in PBS) after each antibody incubation step. For evaluation of DNA double-strand breaks, cells were detached from dishes using trypsin, counted using a ViCell XR automatic cell counter (Beckmann Coulter) and transferred into a pre-cooled 96-well round bottom plate (4 ∗ 10^6 cells/well). Cells were fixed and permeabilized using the eBioscience^TM Foxp3/Transcription Factor Staining Buffer Set (Thermo Fisher Scientific). Cells were stained for 1.5 h with Phospho-Histone H2A.X (S139) primary antibody (CST #9718) and for 1 h in Alexa-488-labeled secondary antibody (ThermoFisher A-11008). Cells were washed three times in 1× permeabilization buffer after each antibody incubation step and fluorescence was quantified on a BD FACSCanto II platform.

[4] = system: SK-N-AS cells; assay: Flow cytometric quantification of intracellular doxorubicin accumulation, SK-N-AS; details: 100 ng/ml doxorubicin +/− 7.5 µM tubastatin A, 48 h
Method: For flow cytometric quantification of intracellular doxorubicin after HDAC6/10 inhibition, BE(2)-C, SK-N-AS, IMR-32, HAP1 wild type and HDAC10 knockout cells were seeded in 6-well dishes at a density of 1.5 ∗ 10^5 cells/well (BE(2)-C and SK-N-AS, HAP1) and 3 ∗ 10^5 cells/well (IMR-32). Cells were treated with 25 ng/ml, 50 ng/ml, 100 ng/ml or 1 µg/ml doxorubicin, respectively, for 3–48 h (see respective figure legend). Where indicated, cells were co-treated with HDAC6/10 or lysosomal inhibitors. In case of co-treatment with vacuolin-1, vacuolin-1 was directly added to cells under doxorubicin treatment 1 h or 24 h prior to analysis. Flow cytometric quantification of intracellular doxorubicin after HDAC6, HDAC10 or P-glycoprotein knockdown in BE(2)-C cells was performed 5 days (P-glycoprotein) or 6 days (HDAC6/10) after transfection with siRNA. To that end, cells were seeded 3–4 days after transfection into 6-well dishes at 1.5 ∗ 10^5 cells per well and treated with 100 ng/ml doxorubicin +/− HDAC6/10 and lysosomal inhibitors for the last 24 h. After doxorubicin treatment, BE(2)-C, SK-N-AS, IMR-32 and HAP1 cells were washed with ice-cold RPMI w/o phenol-red and detached using Trypsin/EDTA for 3 minutes at 37 °C. Cells were centrifuged, resuspended in RPMI w/o phenol red and doxorubicin fluorescence was quantified on a BD FACSCanto II platform using the PE filter setting.

CN1CCc2c(c3ccccc3n2Cc2ccc(C(=O)NO)cc2)C1 [tubastatin A]
DSBs (γH2A.X), co-treatment with doxorubicin compared to doxorubicin alone ([1]; 100 ng/ml doxorubicin): significantly increased the amount of DSBs
DSBs (γH2A.X), treatment alone in the absence of doxorubicin ([1]; verapamil 10 µM): increase DSBs
lysosomal accumulation (LysoTracker staining) ([2]; bufexamac 30 µM, tubastatin A 7.5 µM, tubacin 7.5 µM, VPA 1 mM, vacuolin-1 10 µM): caused lysosomal accumulation
lysosomal accumulation on combination with vacuolin-1 compared to vacuolin-1 alone ([2]; tubastatin A 7.5 µM + vacuolin-1 10 µM): no additional lysosomal accumulation
cell surface LAMP-1 levels [3]: reduced surface LAMP-1 levels
doxorubicin accumulation, SK-N-AS [4]: increased accumulation of doxorubicin
